Test results reported in patent US10314909B2, “Combination therapy comprising an MMP-14 binding protein” (DYAX CORP., priority 2011, dated 2019).

Key:
Format in all cases: in vivo
[1] = test system: SK-MEL-5 human melanoma xenograft; experiment: subcutaneous SK-MEL-5 human melanoma xenograft model, tumor size; settings: BALB/c nude mice, s.c. SK-MEL-5, DX-2400 20 mg/kg i.v. Q3D X6, paclitaxel 8 mg/kg i.p. Q4D X6; for tumor growth rate: compared to untreated mice; for tumor volume: compared to untreated mice (FIG. 2)
Method: The in vivo therapeutic efficacy of DX-2400 as a single agent or in combination with Paclitaxel in the treatment of human melanoma was evaluated using a subcutaneous SK-MEL-5 human melanoma xenograft model.
SK-MEL-5 human melanoma cells were grown in EMEM medium, supplemented with 10% heat inactivated fetal bovine serum, 100 U/ml penicillin and 100 μg/ml streptomycin at 37° C. in an atmosphere of 5% CO2 in air. The tumor cells were routinely subcultured twice weekly. Cells were harvested during the logarithmic growth period and resuspended in physical PBS with proper cell concentration and kept on ice for tumor induction.
(§1) 55 BALB/c nude, female, 6-8 weeks, weighing approximately 18-22 g (40 mice+˜40% spare) were used for the study. Animals were purchased from Shanghai Laboratory Animal Center SLAC (Shanghai, China, Shanghai). Each mouse was inoculated subcutaneously at the right flank with SK-MEL-5 tumor cells (5×10^6) in 0.1 ml of PBS for tumor development. The treatments were started when the mean tumor size reached approximately 150˜200 mm^3. Each group consisted of 10 mice.
(§2) The major endpoint is to see if the tumor growth can be delayed or tumor bearing mice can be cured. Tumor sizes were measured twice weekly in two dimensions using a caliper, and the volume was expressed in mm^3 using the formula: V=0.5 a×b^2 where a and b are the long and short diameters of the tumor, respectively. The tumor sizes were then used for the calculations of both T-C and T/C values. T-C is calculated with T as the time (in days) required for the mean tumor size of the treatment group to reach a predetermined size (e.g., 1000 mm^3), and C is the time (in days) for the mean tumor size of the control group to reach the same size. The T/C value (in percent) is an indication of antitumor effectiveness, T and C are the mean volume of the treated and control groups, respectively, on a given day.

[2] = test system: A375 human melanoma xenograft; experiment: subcutaneous A375 human melanoma xenograft model, tumor size; settings: BALB/c nude mice, s.c. A375, DX-2400 20 mg/kg i.v. Q3D X6; for tumor volume: darcabazine 150 mg/kg i.p. Day 1, 4/wk x 3, compared to untreated mice (FIG. 1); for tumor growth rate: darcabazine 150 mg/kg i.p., compared to untreated mice
Method: The in vivo therapeutic efficacy of DX-2400 as a single agent or in combination with darcabazine was determined using a subcutaneous A375 human melanoma xenograft model.
(§3) A375 tumor cells were maintained in vitro as a monolayer culture in DMEM medium, supplemented with 10% heat inactivated fetal bovine serum, 100 U/ml penicillin and 100 μg/ml streptomycin, and L-glutamine (2 mM) at 37° C. in an atmosphere of 5% CO2 in air. The tumor cells were routinely subcultured twice weekly by trypsin-EDTA treatment. The cells growing in an exponential growth phase were harvested and counted for tumor inoculation.
as §1, with “18-22” for “18-22 g (40 mice+˜40% spare) were used for the study. Animals”, “China) for use in the study (40 mice+˜40% spare).” for “China, Shanghai).”, “A375” for “SK-MEL-5”
as §2

[3] = test system: Panc-1 human pancreas cancer xenograft; experiment: subcutaneous Panc-1 human pancreas cancer xenograft model, tumor size; settings: BALB/c nude mice, s.c. Panc-1; DX-2400 20 mg/kg i.v. Q3D X6; gemcitabine 50 mg/kg i.p. Q3D X4; compared to untreated mice (FIG. 4A)
Method: The in vivo therapeutic efficacy of DX-2400 as a single agent or in combination with gemcitabine was evaluated in the treatment of a subcutaneous Panc-1 human pancreas cancer xenograft model.
as §3, with “Panc-1 tumor cells” for “A375 tumor cells”, “tumor cells will be routinely subcultured” for “tumor cells were routinely subcultured”, “growth phase will be harvested and” for “growth phase were harvested and”
A total of 56 (40 plus 40% spare) BALB/c nude, female, 6-8 weeks, weighing approximately 18-22 g were purchased from Shanghai Laboratory Animal Center SLAC (Shanghai, China) for use in the study. […]
as §2, with “The tumor sizes were then used for the calculations of both T-C and T/C values.” left out, “The T/C value (in percent) is an indication of antitumor effectiveness, T and C are the mean volume of the treated and control groups, respectively, on a given day.” left out

[4] = test system: primary human pancreatic cancer PAM527 xenograft; experiment: subcutaneous primary human pancreatic cancer PAM527 xenograft model in nude mice, tumor size; settings: BALB/c nude mice, s.c. PAM527 tumor fragment; DX-2400 20 mg/kg i.v. Q3d x 6; gemcitabine 60 mg/kg i.p. Q4d x 4; compared to untreated mice (FIG. 3A)
Method: The in vivo anti-tumor activity of DX-2400 as a single agent or in combination with gemcitabine was evaluated in the treatment of subcutaneous primary human pancreatic cancer using a PAM527 xenograft model in nude mice.
75 BALB/c nude mice, female, 6-8 weeks, weighing approximately 18-24 g were purchased from SLAC, Shanghai, P. R. China (40 mice+˜90% spare). Tumor fragments from seed mice inoculated with selected primary human pancreatic cancer tissues (PAM527) were harvested and used for inoculation into BALB/c nude mice. Each mouse was inoculated subcutaneously at the right flank with one tumor fragment (2-3 mm in diameter) for tumor development. The treatments were started when the mean tumor size reached approximately 150 mm^3. Each group consisted of 10 mice.
as §2, with “The tumor sizes were then used for the calculations of both T-C and T/C values.” left out, “The T/C value (in percent) is an indication of antitumor effectiveness, T and C are the mean volume of the treated and control groups, respectively, on a given day.” left out

## CC(=O)O[C@H]1C(=O)[C@@]2(C)[C@H]([C@H](OC(=O)c3ccccc3)[C@]3(O)C[C@H](OC(=O)[C@H](O)[C@@H](NC(=O)c4ccccc4)c4ccccc4)C(C)=C1C3(C)C)[C@]1(OC(C)=O)CO[C@@H]1C[C@@H]2O [paclitaxel]
[1]
  tumor growth rate: caused a reduction in tumor growth rate
  tumor volume: reduced tumor volume

## CN(C)/N=N/c1[nH]cnc1C(N)=O [darcabazine, dacarbazine]
[2]
  tumor volume: reduced tumor volume
  tumor growth rate: caused a reduction in tumor growth rate

## Nc1ccn([C@@H]2O[C@H](CO)[C@@H](O)C2(F)F)c(=O)n1 [gemcitabine]
[3]
  mean tumor size: reduced the tumor size
[4]
  mean tumor size: reduced the tumor size

B1: DX-2400: human anti-MMP-14 antibody, light and heavy chains of M0038-F01; VH SEQ ID NO: 51, VL SEQ ID NO: 52 (antibody, listed as Homo sapiens, V domains shown)
VH: EVQLLESGGGLVQPGGSLRLSCAASGFTFSLYSMNWVRQAPGKGLEWVSSIYSSGGSTLYADSVKGRFTISRDNSKNTLYLQMNSLRAEDTAVYYCARGRAFDIWGQGTMVTVSS
VL: DIQMTQSPSSLSASVGDRVTITCRASQSVGTYLNWYQQKPGKAPKLLIYATSNLRSGVPSRFSGSGSGTDFTLTISSLQPEDFATYYCQQSYSIPRFTFGPGTKVDIK
[2]
  tumor volume: reduced tumor volume
  tumor growth rate: caused a reduction in the tumor growth rate
[3]
  mean tumor size: reduced the mean tumor size
[4]
  mean tumor size: reduced the mean tumor size
[1]
  tumor growth rate: caused a reduction in the tumor growth rate
  tumor volume: reduced tumor volume
